ChEMBL document CHEMBL1145263, “Redox-responsive and calcium-dependent switching of glycosyldisulfide interactions with Concanavalin A” (Bioorg Med Chem Lett, 2005)

How the values were obtained:
[1] = Inhibitory concentration against mannan binding relative to concanavalin A; Using QCM(quartz crystal microbalance) assay; NA= Not active
[2] = (§1) Inhibitory concentration against mannan binding relative to concanavalin A; Using QCM(quartz crystal microbalance) assay
[3] = as §1; remark: listed apart in the source

Structure (SMILES)	IC50 [1]	IC50 [2] [µM]	other results
COC1O[C@H](CSSCC2O[C@H](OC)C(O)[C@@H](O)[C@@H]2O)C(O)[C@@H](O)[C@@H]1O (stereo partly specified)	Not Active		
CO[C@H]1O[C@H](CO)[C@@H](O)[C@H](O)[C@@H]1O		1100	
OCC1O[C@H](S)C(O)[C@@H](O)[C@@H]1O (stereo partly specified)			Inhibition [3]: 10 mM
CC(=O)NC1[C@@H](O)[C@H](O)C(CO)O[C@H]1SS[C@@H]1OC(CO)[C@@H](O)[C@@H](O)C1NC(C)=O (stereo in doubt)		2000	

Now from value to compound, other results behind:

IC50 [1]	IC50 [2] [µM]	Structure (SMILES)	other results
Not Active		CC(=O)NC1C(O)[C@@H](O)C(CO)O[C@H]1SS[C@@H]1OC(CO)[C@H](O)[C@@H](O)C1NC(C)=O (single isomer, unassigned)	
	5300	OC[C@H]1OC(O)[C@@H](O)[C@@H](O)[C@@H]1O (stereo partly drawn) [D-MANNOSE]	
